Data taken from US7842817B2, “2-amino benzimidazole derivatives and their use as modulators of small-conductance calcium-activated potassium channels” (Neurosearch A/S, priority 2005, dated 2010).
Where a name gives a salt, the structure may show the parent alone.

Row | Structure (SMILES) | melting point
1 | N=c1n(Cc2ccc(F)c(F)c2)c2ccccc2n1-c1ccc(F)c(F)c1 (as salt: hydrobromid) [Example 13, 1-(3,4-Difluorobenzyl)-3-(3,4-difluorophenyl)-1,3-dihydrobenzoimidazol-2-ylideneamine] | 259 to 260 °C
2 | Fc1ccc(Cn2c(Nc3ccc(F)c(F)c3)nc3ccccc32)cc1F (as salt: hydrochloride) [Example 5, N-[1-(3,4-Difluorobenzyl)benzimidazol-2-yl]-3,4-difluoroaniline] | 236 to 238 °C
3 | N=c1n(Cc2ccc(Cl)cc2)c2ccccc2n1Cc1ccc(Cl)cc1 [Example 1, 1,3-Bis(4-chlorobenzyl)-1,3-dihydrobenzoimidazol-2-ylideneamine] | 185 to 187 °C
4 | N=c1n(Cc2ccc(Cl)c(Cl)c2)c2ccccc2n1Cc1ccc(Cl)c(Cl)c1 [Example 2, 1,3-Bis(3,4-dichlorobenzyl)-1,3-dihydrobenzoimidazol-2-ylideneamine] | 145 to 146 °C
5 | N=c1n(Cc2ccc(F)cc2)c2ccccc2n1Cc1ccc(F)cc1 [Example 3, 1,3-Bis(4-fluorobenzyl)-1,3-dihydrobenzoimidazol-2-ylideneamine] | 148 to 150 °C
6 | N=c1n(Cc2ccc(F)c(F)c2)c2ccccc2n1Cc1ccc(F)c(F)c1 [Example 4, 1,3-Bis(3,4-difluorobenzyl)-1,3-dihydrobenzoimidazol-2-ylideneamine] | 114 to 117 °C
7 | Fc1ccc(Cn2c(Nc3ccc(C(F)(F)F)cc3)nc3ccccc32)cc1F [Example 7, N-[1-(3,4-Difluorobenzyl)benzimidazol-2-yl]-4-trifluoromethylaniline] | 167 to 170 °C
8 | FC(F)(F)c1cc(Cn2c(Nc3ccc(Cl)c(C(F)(F)F)c3)nc3ccccc32)ccc1Cl [Example 8, N-[1-(4-Chloro-3-trifluoromethylbenzyl)benzimidazol-2-yl]-4-chloro-3-trifluoromethylaniline] | 88 to 92 °C
9 | Fc1ccc(CNc2nc3ccccc3n2Cc2ccc(Cl)c(C(F)(F)F)c2)cc1F [Example 9, N-[1-(4-Chloro-3-trifluoromethylbenzyl)benzimidazol-2-yl]-3,4-difluorobenzylamine] | 158 to 161 °C
10 | N=c1n(Cc2cc(F)cc(F)c2)c2ccccc2n1Cc1cc(F)cc(F)c1 [Example 12, 1,3-Bis(3,5-difluorobenzyl)-1,3-dihydrobenzoimidazol-2-ylideneamine] | 144 to 145 °C
11 | N=c1n(Cc2ccc(F)c(F)c2)c2ccc(F)cc2n1Cc1ccc(F)c(F)c1 [Example 15, 1,3-Bis(3,4-difluorobenzyl)-5-fluoro-1,3-dihydrobenzoimidazol-2-ylideneamine] | > 166 °C (dec.)
12 | N=c1n(Cc2cccc(C(F)(F)F)c2)c2ccccc2n1Cc1cccc(C(F)(F)F)c1 [Example 16, 1,3-Bis[3-(trifluoromethyl)benzyl]-1,3-dihydrobenzoimidazol-2-ylideneamine] | 175 to 177 °C
13 | N=c1n(Cc2ccc(F)c(F)c2)c2ccc(Br)cc2n1Cc1ccc(F)c(F)c1 [Example 17, 1,3-Bis(3,4-difluorobenzyl)-5-bromo-1,3-dihydrobenzoimidazol-2-ylideneamine] | 88 to 89.5 °C
14 | Fc1ccc(CNc2nc3ccccc3n2-c2ccc(F)c(F)c2)cc1F [Example 19, (3,4-Difluorobenzyl)-[1-(3,4-difluorophenyl)-1H-benzoimidazol-2-yl]amine] | 158.5 to 159.5 °C
15 | Fc1ccc(Nc2nc3ccccc3n2-c2ccc(F)c(F)c2)cc1F [Example 20, (3,4-Difluorophenyl)-[1-(3,4-difluorophenyl)-1H-benzoimidazol-2-yl]amine] | 115 to 117 °C
